Measured values reported in patent US7009045B2 (priority 2000, dated 2006).

What was measured:
Assay type in all cases: cell-based
[1] = test system: Candida famata regulatory mutants able to overproduce riboflavin; assay: Sensitivity to K2Cr2O7, solid Burkholder medium with 0.5% glycerol (Table 14); set-up: key: +++: strong growth; ++: weak growth; —: absence of growth
Method: The sensitivity of the regulatory mutants of the yeast C. famata which overproduce riboflavin in iron rich medium probably due to defects in genes regulating repression (repression mutants), to different ions of heavy metals was studied. For this, the analyzed strains were streaked on the YPD plates and then were replica-plated on Burkholder synthetic medium containing leucine (40 μg/ml). The C.famata mutants L20105-40-1-11, L20105-40-1-17, L20105-3-2-1, L20105-3-2-8 and L20105-3-2-12 (all contained leu2 marker) accumulated 80–100 μg riboflavin/ml. The mutants #75, 4-48, 2-5 produced much higher amounts of riboflavin (200–250 μg/ml) but were prototrophs for leucine synthesis. Strain #75 was characterized by retarded growth comparing with other mutants. The strains VKM Y-9 (wild type) and L20105 (leu2) were used as the control strains.

[2] = test system: Pichia guilliermondii wild type and regulatory mutants (rib81); assay: Sensitivity after electroporation to K2Cr2O7, medium with 0.5% glycerol (Table 21); set-up: key: +++: strong growth; ++: weak growth; —: absence of growth
Description: (§1) The possibility for positive selection of P. guilliermondii rib81 transformants unable to overproduce riboflavin in minimal medium was studied. For this, the toxicity of K2Cr2O7 (Cr^+6) was compared for the P. guilliermondii wild-type strain ATCC 9058 and regulatory mutants P. guilliermondii rib81 9-20 and 20-2. The cells were pregrown in liquid YPD to OD 1.5–2.0 (540 nm) and electroporated according to the protocol described (Example 34). Electroporated cells were washed three times with 10×volume of 0.6 M KCl and then the volume was adjusted to 1 ml. Then the cells were plated at 0.2 ml suspension per plate which contained 0.5% glycerol, 0.6 M KCl and K2Cr2O7 (50–1000 μM).
(§2) The visual selection of the non-overproducing riboflavin transformants is rather arbitrary and uncertain. Therefore it was decided to develop the method for positive selection of the transformants using tentative differences in sensitivity to K2Cr2O7 of wild-type P. guilliermondii and the regulatory mutants rib81 9-20 and 20-2. After 6 days of cultivation in the medium with 0.5% glycerol, it was shown that K2Cr2O7 at 150–180 μM inhibited growth of regulatory mutant 9-20 more strongly than that of the wild strain (Table 21).

[3] = test system: Pichia guilliermondii wild type and regulatory mutants (rib81); assay: as above; conditions: Cr^+6 250–350 μM, 0.6 M KCl
Description: as §1, §2

[4] = test system: Pichia guilliermondii wild type and regulatory mutants (rib81); assay: as above; set-up: key: +++: strong growth; ++: weak growth; +: very weak growth; —: absence of growth; conditions: #9-20 (leu2); K2Cr2O7 125 μM
Description: as §1, §2

Compound: [K+].[K+].[O]=[Cr](=[O])([O-])[O][Cr](=[O])(=[O])[O-] [K2Cr2O7]
- growth ([1]; #2-5, K2Cr2O7 25 μM): +++
- growth ([1]; #2-5, K2Cr2O7 30 μM): +++
- growth ([1]; #2-5, K2Cr2O7 35 μM): +++
- growth ([1]; #2-5, K2Cr2O7 40 μM): +++
- growth ([1]; #2-5, K2Cr2O7 45 μM): +++
- growth ([1]; #2-5, K2Cr2O7 55 μM): ++
- growth ([1]; #2-5, K2Cr2O7 85 μM): —
- growth ([1]; #2-5, K2Cr2O7 100 μM): —
- growth ([1]; #2-5, K2Cr2O7 125 μM): —
- growth ([1]; #2-5, K2Cr2O7 150 μM): —
- growth ([1]; #4-48, K2Cr2O7 25 μM): +++
- growth ([1]; #4-48, K2Cr2O7 30 μM): +++
- growth ([1]; #4-48, K2Cr2O7 35 μM): +++
- growth ([1]; #4-48, K2Cr2O7 40 μM): +++
- growth ([1]; #4-48, K2Cr2O7 45 μM): +++
- growth ([1]; #4-48, K2Cr2O7 55 μM): ++
- growth ([1]; #4-48, K2Cr2O7 65 μM): —
- growth ([1]; #4-48, K2Cr2O7 70 μM): —
- growth ([1]; #4-48, K2Cr2O7 75 μM): —
- growth ([1]; #4-48, K2Cr2O7 85 μM): —
- growth ([1]; #4-48, K2Cr2O7 100 μM): —
- growth ([1]; #4-48, K2Cr2O7 125 μM): —
- growth ([1]; #4-48, K2Cr2O7 150 μM): —
- growth ([1]; #75, K2Cr2O7 25 μM): +++
- growth ([1]; #75, K2Cr2O7 30 μM): +++
- growth ([1]; #75, K2Cr2O7 35 μM): +++
- growth ([1]; #75, K2Cr2O7 45 μM): ++
- growth ([1]; #75, K2Cr2O7 55 μM): ++
- growth ([1]; #75, K2Cr2O7 65 μM): —
- growth ([1]; #75, K2Cr2O7 70 μM): —
- growth ([1]; #75, K2Cr2O7 75 μM): —
- growth ([1]; #75, K2Cr2O7 85 μM): —
- growth ([1]; #75, K2Cr2O7 100 μM): —
- growth ([1]; #75, K2Cr2O7 125 μM): —
- growth ([1]; #75, K2Cr2O7 150 μM): —
- growth ([1]; L20105 (leu2), K2Cr2O7 25 μM): +++
- growth ([1]; L20105 (leu2), K2Cr2O7 30 μM): +++
- growth ([1]; L20105 (leu2), K2Cr2O7 35 μM): +++
- growth ([1]; L20105 (leu2), K2Cr2O7 40 μM): +++
- growth ([1]; L20105 (leu2), K2Cr2O7 45 μM): +++
- growth ([1]; L20105 (leu2), K2Cr2O7 50 μM): +++
- growth ([1]; L20105 (leu2), K2Cr2O7 55 μM): +++
- growth ([1]; L20105 (leu2), K2Cr2O7 60 μM): +++
- growth ([1]; L20105 (leu2), K2Cr2O7 65 μM): ++
- growth ([1]; L20105 (leu2), K2Cr2O7 70 μM): ++
- growth ([1]; L20105 (leu2), K2Cr2O7 75 μM): ++
- growth ([1]; L20105 (leu2), K2Cr2O7 85 μM): ++
- growth ([1]; L20105 (leu2), K2Cr2O7 100 μM): ++
- growth ([1]; L20105 (leu2), K2Cr2O7 125 μM): —
- growth ([1]; L20105 (leu2), K2Cr2O7 150 μM): —
- growth ([1]; L20105-3-2-4, K2Cr2O7 25 μM): +++
- growth ([1]; L20105-3-2-4, K2Cr2O7 45 μM): —
- growth ([1]; L20105-3-2-4, K2Cr2O7 50 μM): —
- growth ([1]; L20105-3-2-4, K2Cr2O7 55 μM): —
- growth ([1]; L20105-3-2-4, K2Cr2O7 60 μM): —
- growth ([1]; L20105-3-2-4, K2Cr2O7 65 μM): —
- growth ([1]; L20105-3-2-4, K2Cr2O7 70 μM): —
- growth ([1]; L20105-3-2-4, K2Cr2O7 85 μM): —
- growth ([1]; L20105-3-2-4, K2Cr2O7 100 μM): —
- growth ([1]; L20105-3-2-4, K2Cr2O7 125 μM): —
- growth ([1]; L20105-3-2-4, K2Cr2O7 150 μM): —
- growth ([1]; L20105-3-2-8, K2Cr2O7 25 μM): +++
- growth ([1]; L20105-3-2-8, K2Cr2O7 45 μM): —
- growth ([1]; L20105-3-2-8, K2Cr2O7 50 μM): —
- growth ([1]; L20105-3-2-8, K2Cr2O7 55 μM): —
- growth ([1]; L20105-3-2-8, K2Cr2O7 60 μM): —
- growth ([1]; L20105-3-2-8, K2Cr2O7 65 μM): —
- growth ([1]; L20105-3-2-8, K2Cr2O7 70 μM): —
- growth ([1]; L20105-3-2-8, K2Cr2O7 75 μM): —
- growth ([1]; L20105-3-2-8, K2Cr2O7 85 μM): —
- growth ([1]; L20105-3-2-8, K2Cr2O7 100 μM): —
- growth ([1]; L20105-3-2-8, K2Cr2O7 125 μM): —
- growth ([1]; L20105-3-2-8, K2Cr2O7 150 μM): —
- growth ([1]; L20105-3-2-12, K2Cr2O7 25 μM): +++
- growth ([1]; L20105-3-2-12, K2Cr2O7 45 μM): —
- growth ([1]; L20105-3-2-12, K2Cr2O7 50 μM): —
- growth ([1]; L20105-3-2-12, K2Cr2O7 55 μM): —
- growth ([1]; L20105-3-2-12, K2Cr2O7 60 μM): —
- growth ([1]; L20105-3-2-12, K2Cr2O7 65 μM): —
- growth ([1]; L20105-3-2-12, K2Cr2O7 70 μM): —
- growth ([1]; L20105-3-2-12, K2Cr2O7 75 μM): —
- growth ([1]; L20105-3-2-12, K2Cr2O7 85 μM): —
- growth ([1]; L20105-3-2-12, K2Cr2O7 100 μM): —
- growth ([1]; L20105-3-2-12, K2Cr2O7 125 μM): —
- growth ([1]; L20105-3-2-12, K2Cr2O7 150 μM): —
- growth ([1]; VKM Y-9, K2Cr2O7 65 μM): +++
- growth ([1]; VKM Y-9, K2Cr2O7 70 μM): +++
- growth ([1]; VKM Y-9, K2Cr2O7 75 μM): +++
- growth ([1]; VKM Y-9, K2Cr2O7 85 μM): +++
- growth ([1]; VKM Y-9, K2Cr2O7 100 μM): +++
- growth ([1]; VKM Y-9, K2Cr2O7 125 μM): ++
- growth ([2]; #9-20 (leu2), K2Cr2O7 75 μM): +++
- growth ([2]; #9-20 (leu2), K2Cr2O7 100 μM): ++
- growth ([2]; #9-20 (leu2), K2Cr2O7 150 μM): —
- growth ([2]; #9-20 (leu2), K2Cr2O7 185 μM): —
- growth ([2]; #9-20 (leu2), K2Cr2O7 240 μM): —
- growth ([2]; ATCC9058, K2Cr2O7 75 μM): +++
- growth ([2]; ATCC9058, K2Cr2O7 100 μM): +++
- growth ([2]; ATCC9058, K2Cr2O7 125 μM): +++
- growth ([2]; ATCC9058, K2Cr2O7 150 μM): +++
- growth ([2]; ATCC9058, K2Cr2O7 185 μM): ++
- growth ([2]; ATCC9058, K2Cr2O7 240 μM): —
- growth of wild-type strain P. guilliermondii ATCC 9058 [3]: only slightly depressed
- growth [4]: +
